In patent US10757937B2, “Sulfonamides that activate ABA receptors” (The Regents of the University of California, priority 2014, dated 2020):
Where two headings read alike, the source gives them in different places.

Tests used:
PYL4 = biological target: T1, PYL4 (Arabidopsis thaliana, UniProt O80920); assay: receptor-mediated PP2C (HAB1) inhibition in vitro assay; assay type: biochemical; settings: compound at 25 μM; control without agonist = 100%
T1 construct: 6X-His; made in house; host or cells: E. coli BL21[DE3]pLysS
T1 sequence (O80920 1-207): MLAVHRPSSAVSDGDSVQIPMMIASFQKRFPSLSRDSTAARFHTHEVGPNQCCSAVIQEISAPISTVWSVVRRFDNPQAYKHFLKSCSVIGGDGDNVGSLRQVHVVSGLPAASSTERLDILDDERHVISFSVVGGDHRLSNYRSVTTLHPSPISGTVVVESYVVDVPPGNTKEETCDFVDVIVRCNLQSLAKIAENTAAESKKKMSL
T1 sequence (Q9CAJ0 23-511 partner): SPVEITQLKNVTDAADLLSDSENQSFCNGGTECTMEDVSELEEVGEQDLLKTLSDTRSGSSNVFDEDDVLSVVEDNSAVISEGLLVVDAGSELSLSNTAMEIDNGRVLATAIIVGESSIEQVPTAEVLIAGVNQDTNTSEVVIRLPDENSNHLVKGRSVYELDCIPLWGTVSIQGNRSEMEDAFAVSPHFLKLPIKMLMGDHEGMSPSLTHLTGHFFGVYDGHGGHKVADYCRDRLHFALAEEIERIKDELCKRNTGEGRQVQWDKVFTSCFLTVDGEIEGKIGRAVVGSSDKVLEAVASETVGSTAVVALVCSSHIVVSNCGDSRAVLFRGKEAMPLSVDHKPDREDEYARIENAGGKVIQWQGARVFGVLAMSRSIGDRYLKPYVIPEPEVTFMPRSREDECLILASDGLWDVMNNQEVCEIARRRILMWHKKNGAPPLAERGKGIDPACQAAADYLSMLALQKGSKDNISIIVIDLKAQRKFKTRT
Protocol: (§1) A family of 62 structurally related N-acyl sulfonamides (Tables I-V) were tested for ABA agonist activity using multiple receptor-mediated PP2C inhibition in vitro assays (Park et al., 2009). […] The constructs utilized for protein expression have been previously described (Okamoto et al. 2013). For constructs encoding 6X-His-fusion proteins (all receptors except PYL11), the coding sequences were of the receptors were cloned in the vector pET28, expressed in BL21[DE3]pLysS E. coli host cells at 18° C. overnight, and subsequently purified from sonicated lysates using Ni-NTA agarose (Qiagen, USA), according to the manufacturer's instructions. PYL11 was constructed as a maltose binding protein fusion in the vector pMAL-c, expressed in BL21┌DE3┐pLysS host cells and purified using amylose resin (New England Biolabs) as described by the manufacturer. Recombinant GST-HAB1 was expressed and purified as described previously (Park et al., 2009). PP2C activity assays were conducted using the fluorogenic phosphatase substrate 4-methylumbelliferyl-phosphate. Recombinant receptors and HAB1 were used to examine ligand-induced PP2C inactivation in response to multiple test compounds. Enzyme inhibition assays were conducted using the following assay conditions: 50 nM GST-PP2C, 100 mM Tris-OAc (pH 7.9), 100 mM NaCl, 1 mM MnCl2, 1% β-mercaptoethanol. […] Because of this, the ratio of each receptor used in the PP2C-inhibitions assays was established empirically as the minimum fold-excess of receptor required to elicit maximal PP2C inhibition at a saturating ABA concentration (10 μM).
(§2) Based on this criterion, we used a ratio of 2:1 receptor in the assays described herein.
(§3) Using the above assay conditions, compounds were tested at 25 μM for agonist activity on PYL4, PYL5, PYL8 and PYL9. […] Consequently, a subset of the compounds was tested at multiple concentrations against 11 receptors so that IC50 values and receptor selectivity profiles could be examined. […] Thus, the N-acylsulfonamide agonists disclosed are selective for monomeric receptors.
(§4) Additional compounds were tested for biological activity following the procedures of Example 1 with minor modifications.
(§5) For these in vitro receptor assays, the compounds listed were tested in in vitro PP2C inhibition assays with 50 uM of the test compound except for ABA (10 uM). IC50s were calculated from dose curves, but only for selected compounds.

PYL5 = biological target: T2, PYL5 (Arabidopsis thaliana, UniProt Q9FLB1); assay: as above; assay type: biochemical; settings: compound at 25 μM; control without agonist = 100%
T2 construct: 6X-His; made in house; host or cells: E. coli BL21[DE3]pLysS
T2 sequence (Q9FLB1 1-203): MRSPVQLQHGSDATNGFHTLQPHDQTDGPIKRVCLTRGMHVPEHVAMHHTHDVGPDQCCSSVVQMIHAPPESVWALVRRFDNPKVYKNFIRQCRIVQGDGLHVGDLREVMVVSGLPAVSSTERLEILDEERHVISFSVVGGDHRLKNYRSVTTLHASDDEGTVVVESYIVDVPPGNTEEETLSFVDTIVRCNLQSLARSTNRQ
T2 sequence (Q9CAJ0 23-511 partner): T1 sequence (Q9CAJ0 23-511 partner)
Protocol: as §1, §2, §3, §4, §5

PYL8 = biological target: T3, PYL8 (Arabidopsis thaliana, UniProt Q9FGM1); assay: as above; assay type: biochemical; settings: compound at 25 μM; control without agonist = 100%
T3 construct: 6X-His; made in house; host or cells: E. coli BL21[DE3]pLysS
T3 sequence (Q9FGM1 1-188): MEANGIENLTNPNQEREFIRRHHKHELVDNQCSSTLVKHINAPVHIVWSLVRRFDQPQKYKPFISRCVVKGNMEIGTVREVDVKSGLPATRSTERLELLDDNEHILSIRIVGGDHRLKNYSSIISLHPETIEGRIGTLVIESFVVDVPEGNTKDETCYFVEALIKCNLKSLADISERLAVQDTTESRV
T3 sequence (Q9CAJ0 23-511 partner): T1 sequence (Q9CAJ0 23-511 partner)
Protocol: as §1, §2, §3, §4, §5

PYL9 = biological target: T4, PYL9 (Arabidopsis thaliana, UniProt Q84MC7); assay: as above; assay type: biochemical; settings: compound at 25 μM; control without agonist = 100%
T4 construct: 6X-His; made in house; host or cells: E. coli BL21[DE3]pLysS
T4 sequence (Q84MC7 1-187): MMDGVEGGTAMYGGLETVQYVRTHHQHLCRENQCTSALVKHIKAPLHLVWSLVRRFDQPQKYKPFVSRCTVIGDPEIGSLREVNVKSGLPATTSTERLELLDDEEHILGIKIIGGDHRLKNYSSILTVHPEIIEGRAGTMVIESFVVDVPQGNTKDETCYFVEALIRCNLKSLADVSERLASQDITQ
T4 sequence (Q9CAJ0 23-511 partner): T1 sequence (Q9CAJ0 23-511 partner)
Protocol: as §1, §2, §3, §4, §5

[1] = test system: Arabidopsis seed germination and hypocotyl growth; assay: Arabidopsis seed germination and hypocotyl growth; assay type: in vivo; settings: − = none; for Hypocotyl Growth Inhibition: lowest concentration that inhibited hypocotyl growth in wells where seeds germinated; for minimal effective concentration: Table VIII, tested at 10 or 50 μM, lowest inhibiting concentration
Protocol: We germinated seeds from wild type on ½× strength Murashige and Skoog salts growth medium containing either 10 or 50 μM for all 62 compounds as well as 1 μM (+)-ABA and mock controls. […] To investigate if the any of the compounds are sufficient to control vegetative ABA responses, we treated three week old Arabidopsis plants with aqueous solutions containing 0.02% Silwet and either 50 μM of selected N-acylsulfonamides, 50 μM ABA or 0.1% DMSO (the carrier solvent for the compounds tested). The leaf temperatures were subsequently examined using a thermal imaging camera 24 hours after treatment. It is well known that ABA-induced guard cell closure reduces transpiration, which leads to increases in leaf temperatures. It has been estimated that a 1° C. increase in leaf temperature correlates with a decrease in transpiration rates by approximately 50% (Sirault et al., 2009). Since guard cell aperture is the primary determinant of transpiration rates, thermal imaging is a useful way to indirectly infer relative transpiration rates and, indirectly, relative degrees of guard cell opening at the whole plant level.
as §4
For the germination inhibition experiment, the compounds were tested at 10 and 50 uM. The amounts shown are the lowest of the two concentrations that either inhibited germination or hypocotyl growth in wells where seeds germinated.
For the germination test, the compounds were tested at 1, 5, 10, 25 and 50 uM. The amounts shown are the lowest of the concentrations that either inhibited germination or hypocotyl growth in the wells where seeds germinated.

[2] = Germination Inhibition II, tested at 10 and 50 uM
[3] = read-out: Hypocotyl Growth Inhibition

Compound	PP2C Activity (25 μm) PYL4 (PYL4) [%]	PP2C Activity (25 μm) PYL5 (PYL5) [%]	PP2C Activity (25 μm) PYL8 (PYL8) [%]	PP2C Activity (25 μm) PYL9 (PYL9) [%]	Hypocotyl Growth Inhibition [1, 2] [µM]	minimal effective concentration [1, 3] [µM]	Germination Inhibition ([1]; Germination Inhibition II, tested at 10 and 50 uM, lowest of the two concentrations that inhibited) [µM]	minimal effective concentration ([1]; ABA at 1 μM, read-out: Germination Inhibition) [µM]	remaining activity at 25 µM (PYL4) [%]	remaining activity at 25 µM (PYL5) [%]	remaining activity at 25 µM (PYL8) [%]	remaining activity at 25 µM (PYL9) [%]
CC(C)(C(=O)NS(=O)(=O)Cc1ccccc1C#N)c1ccccc1 [Compound 1]	96	106	89	83	50	50						
CC(C)(C(=O)NS(=O)(=O)Cc1ccc(C#N)cc1)c1ccc(Br)cc1 [Compound 2]	89	23	69	47	10	10	50	50				
CC(C)(C(=O)NS(=O)(=O)Cc1ccc(F)cc1)c1ccccc1 [Compound 4]	97	106	59	36	50	50						
CC(C)(C(=O)NS(=O)(=O)Cc1ccc(C#N)cc1)c1ccc(C(F)(F)F)cc1 [Compound 11]	93	44	62	58								
CC(C)COc1ccc(C(C)(C)C(=O)NS(=O)(=O)Cc2ccc(C#N)cc2)cc1 [Compound 14]	97	103	108	108								
CCc1ccc(C(C)(C)C(=O)NS(=O)(=O)Cc2ccc(C#N)cc2)cc1 [Compound 20]	95	88	104	98								
COc1ccc(C(C)(C)C(=O)NS(=O)(=O)Cc2ccc(C#N)cc2)cc1OC [Compound 21]	89	89	98	102								
N#Cc1ccc(CS(=O)(=O)NC(=O)C2(c3ccc(Br)cc3)CCC2)cc1 [Compound 31]	97	77	80	74								
Cc1cc(C)cc(C2(C(=O)NS(=O)(=O)Cc3ccc(C#N)cc3)CC2)c1 [Compound 36]	91	34	98	94								
CC(C)(C)c1ccc(C2(C(=O)NS(=O)(=O)Cc3ccc(C#N)cc3)CC2)cc1 [Compound 40]	92	101	106	103								
N#Cc1ccc(CS(=O)(=O)NC(=O)C2(c3ccc(C(F)(F)F)cc3)CC2)cc1 [Compound 45]	93	30	74	53								
N#Cc1ccc(CS(=O)(=O)NC(=O)C2(c3ccccc3F)CC2)cc1 [Compound 47]	95	28	86	75								
CCOc1ccc(C2(C(=O)NS(=O)(=O)Cc3ccc(C#N)cc3)CC2)cc1 [Compound 52]	94	99	91	98								
CC(C)(C(=O)NS(=O)(=O)Cc1ccc2cccnc2c1)c1ccccc1 [Compound 55]	96	95	72	49								
CC(=O)N1CCC(C(=O)NS(=O)(=O)Cc2ccc(C#N)cc2)(c2ccccc2)CC1 [Compound 56]	94	105	106	108								
N#Cc1ccc(CS(=O)(=O)NC(=O)C2(c3cccc(F)c3)CCOCC2)cc1 [Compound 57]	91	100	56	39								
N#Cc1ccc(CS(=O)(=O)NC(=O)C2(c3cccc(Cl)c3)CCOCC2)cc1 [Compound 58]	96	83	84	83								
N#Cc1ccc(CS(=O)(=O)NC(=O)C2(c3ccc(C(F)(F)F)cc3)CCOCC2)cc1 [Compound 59]	92	65	97	98								
N#Cc1ccc(CS(=O)(=O)NC(=O)C2(c3ccccc3)CCN(S(=O)(=O)c3ccccc3)CC2)cc1 [Compound 60]	90	70	101	101								
O=C(NS(=O)(=O)Cc1cccc2cccnc12)C1(c2ccccc2)CC1 [Compound 62]									98	103	100	100
